# Measured values: patent US8658652B2, “Antifolate combinations” (Chelsea Therapeutics, Inc., priority 2010, dated 2014)
# Assays:
# Type in all cases: in vivo
# [1] = Body weight gain in 17 day rat developing type II collagen arthritis test; details: vs vehicle treated disease controls
# Source text: (§1) Female Lewis rats (n=74) weighing 140-161 grams (mean approximate weight=148 g) on day 0 of the study were obtained from Charles River Laboratories, Inc., Wilmington, Mass. Animals were identified by a distinct number delineating group and animal number. After randomization, all cages were labeled with protocol number, group number, and animal number with appropriate color-coding.
# Animals were anesthetized with Isoflurane and received subcutaneous/intradermal (SC/ID) injections with […] of Freund's Incomplete Adjuvant (Difco, Detroit, Mich.) containing 2 mg/ml bovine type II collagen (Elastin Products, Owensville, Mo.) at the base of the tail and two sites on the back on days 0 and 6. Dosing was initiated on day 0 of the study (prior to boosting procedures) and continued daily (QD at 24 hour intervals) through day 16. Animals were terminated on day 17. […]
# Clinical data for ankle joint diameter were analyzed by determining the area under the curve (AUC). […] Means for each group were determined and % inhibition from arthritis controls was calculated by comparing values for treated and […] animals. Data were analyzed using a Student's t-test or Mann-Whitney U test (non-parametric). If applicable, data were analyzed again, across all groups, using a one-way analysis of variance (1-way ANOVA) or Kruskal-Wallis test (non-parametric), along with the appropriate multiple comparison post-test. […]
# [2] = tested on: developing type II collagen arthritis in rats; test: Ankle diameter (caliper) in 17 day rat developing type II collagen arthritis test; details: for Daily ankle diameter reduced toward normal, days of significance: vs vehicle controls; for Ankle diameter AUC reduction toward normal: vs vehicle treated disease controls
# Source text: as §1
# (§2) Animals were anesthetized with Isoflurane and received subcutaneous/intradermal (SC/ID) injections with […] of Freund's Incomplete Adjuvant (Difco, Detroit, Mich.) containing 2 mg/ml bovine type II collagen (Elastin Products, Owensville, Mo.) at the base of the tail and two sites on the back on days 0 and 6. Dosing was initiated on day 0 of the study (prior to boosting procedures) and continued daily (QD at 24 hour intervals) through day 16. Animals were terminated on day 17. The experimental groups were as follows in Table 1, wherein “CH vehicle” means the vehicle used to deliver the compound CH-4051 without the inclusion of the active compound, and “MTX vehicle” means the vehicle used to deliver methotrexate without the inclusion of the active compound. The terms “QD” and “PO” have the standard meanings in the art—i.e., “once daily” and “by mouth”, respectively.
# Rats were weighed on days 0, 3, 6, and 9-17 of the study, and caliper measurements of ankles were taken every day beginning on day 9 (or day 0 of arthritis). Ankle caliper measurements were made with Digitrix II micrometer (Fowler & NSK). Baseline measurements were taken using one ankle with values rounded to one-thousandth of an inch. Measurements were confirmed as clinically normal (0.260-0.264 inches) by comparison with historical values for rats based on a range of body weights. Baseline measurements were then applied to both ankles, and these values remained with the animal so long as the ankle was clinically normal with good definition of all the ankle bones and no evidence of inflammation.
# Clinical data for ankle joint diameter were analyzed by determining the area under the curve (AUC). […] Means for each group were determined and % inhibition from arthritis controls was calculated by comparing values for treated and […] animals. Data were analyzed using a Student's t-test or Mann-Whitney U test (non-parametric). If applicable, data were analyzed again, across all groups, using a one-way analysis of variance (1-way ANOVA) or Kruskal-Wallis test (non-parametric), along with the appropriate multiple comparison post-test. […] Percent inhibition was calculated using the following formula: % Change=B/A×100, wherein A is the mean normal (mean disease control), and B is the mean treated (mean disease control). […]
# [3] = tested on: developing type II collagen arthritis in rats; test: Ankle histopathology in 17 day rat developing type II collagen arthritis test; details: for Ankle histopathology, reduction of summed scores: vs vehicle treated disease controls
# Source text: as §1, §2
# (§3) After final body weight measurement on day 17, animals were anesthetized for terminal serum collection (retained), and then euthanized for tissue collection. Hind paws were transected at the level of the medial and lateral malleolus, weighed, and were placed in formalin with knees for potential microscopy. Livers, spleen, and thymus were removed, trimmed, weighed, and discarded.
# (§4) Preserved and decalcified (5% formic acid) ankle and knee joints were cut in half longitudinally (ankles) or in the frontal plane (knees), processed through graded alcohols and a clearing agent, infiltrated and embedded in paraffin, sectioned, and stained with Toluidine Blue (T. blue) by Bolder BioPATH, Inc. associated personnel (HistoTox Labs, Inc.). Tissues from all animals were examined microscopically by a board certified veterinary pathologist, and observations were entered into a computer-assisted data retrieval system.
# (§5) Clinical data for ankle joint diameter were analyzed by determining the area under the curve (AUC). For calculation of AUC, the daily measurement of ankle joints (using a caliper) for each rat were entered into a spreadsheet, and the area between the treatment days after the onset of disease to the termination day was computed. Means for each group were determined and % inhibition from arthritis controls was calculated by comparing values for treated and […] animals. Data were analyzed using a Student's t-test or Mann-Whitney U test (non-parametric). If applicable, data were analyzed again, across all groups, using a one-way analysis of variance (1-way ANOVA) or Kruskal-Wallis test (non-parametric), along with the appropriate multiple comparison post-test. ANOVA was performed using Prism 5.0c software (GraphPad Software, Inc.). Significance for all tests was set at p<0.05. Percent inhibition was calculated using the following formula: […]. The results of the testing are described below in relation to the various, referenced figures. In all cases, n=4 for Normal Controls, and n=10 for the treatment group.
# [4] = tested on: developing type II collagen arthritis in rats; test: Knee histopathology in 17 day rat developing type II collagen arthritis test
# Source text: as §1, §2, §3, §4, §5
# [5] = tested on: developing type II collagen arthritis in rats; test: Overall effect on developing arthritis parameters, rat type II collagen arthritis; details: for Effect on arthritis parameters: alone
# Source text: as §1, §2, §5
# [6] = tested on: developing type II collagen arthritis in rats; test: Knee histopathology in 17 day rat developing type II collagen arthritis test; details: 0.2 mg/kg MTX 2X/week PO (Group 6); vs vehicle controls
# [7] = 0.2 mg/kg MTX 2X/week PO (Group 6)
# [8] = 0.1 mg/kg methotrexate alone (Group 3), FIG. 10
# [9] = 0.2 mg/kg methotrexate alone (Group 6), FIG. 13
# [10] = 0.1 mg/kg methotrexate alone (Group 3), FIG. 18
# [11] = 5 mg/kg CH-4051 daily PO (Group 7)
# [12] = 2.5 mg/kg CH-4051 alone (Group 4), FIG. 11
# [13] = 5 mg/kg CH-4051 alone (Group 7), FIG. 14
# [14] = 2.5 mg/kg CH-4051 alone (Group 4), FIG. 19
structure (smiles),measurement,setting,value
"CN(Cc1cnc2nc(N)nc(N)c2n1)c1ccc(C(=O)N[C@@H](CCC(=O)O)C(=O)O)cc1 [MTX, methotrexate]",Body weight gain increase toward normal,[1]; [7],68%
same,"Daily ankle diameter reduced toward normal, days of significance",[2]; 0.1 mg/kg MTX 2X/week PO (Group 3),significant at day 11
same,Ankle diameter AUC reduction toward normal,[2]; [7],72%
same,"Ankle histopathology, reduction of summed scores",[3]; 0.1 mg/kg MTX—Group 6 (so in the source),59%
same,"Ankle cartilage damage, photomicrograph of approximate mean summed score",[3]; [8],mild
same,"Ankle inflammation, photomicrograph of approximate mean summed score",[3]; [8],marked
same,"Ankle pannus, photomicrograph of approximate mean summed score",[3]; [8],minimal
same,"Ankle cartilage damage, photomicrograph of approximate mean summed score",[3]; [9],minimal
same,"Ankle inflammation, photomicrograph of approximate mean summed score",[3]; [9],mild
same,"Ankle pannus, photomicrograph of approximate mean summed score",[3]; [9],minimal
same,"Knee bone resorption, photomicrograph of highest summed score in group",[4]; [10],bone resorption
same,"Knee cartilage damage, photomicrograph of highest summed score in group",[4]; [10],mild
same,"Knee inflammation, photomicrograph of highest summed score in group",[4]; [10],severe
same,"Knee pannus, photomicrograph of highest summed score in group",[4]; [10],mild
same,"Knee inflammation, photomicrograph of highest summed score in group","[4]; 0.2 mg/kg methotrexate alone (Group 6), FIG. 21",mild
same,Effect on developing arthritis parameters,[5]; 0.1 mg/kg MTX (dosed 2 times per week),"only minimal, non-significant effects"
same,Effect on arthritis parameters,[5]; 0.2 mg/kg MTX twice weekly,good inhibition of all arthritis parameters
same,Knee bone resorption score reduction,[6],95%
same,Knee cartilage damage score reduction,[6],91%
same,Knee pannus score reduction,[6],91%
"C=C(C[C@H](NC(=O)c1ccc(CCc2ccc3nc(N)nc(N)c3c2)cc1)C(=O)O)C(=O)O [CH-4051, (S)-2-{4-[2-(2,4-diamino-quinazolin-6-yl)-ethyl]-benzoylamino}-4-methylene-pentanedioic acid]",Body weight gain increase toward normal,[1]; [11],84%
same,"Daily ankle diameter reduced toward normal, days of significance",[2]; [11],significant at days 10-17
same,Ankle diameter AUC reduction toward normal,[2]; [11],81%
same,"Ankle cartilage damage, photomicrograph of approximate mean summed score",[3]; [12],mild
same,"Ankle inflammation, photomicrograph of approximate mean summed score",[3]; [12],marked
same,"Ankle pannus, photomicrograph of approximate mean summed score",[3]; [12],mild
same,"Ankle cartilage damage, photomicrograph of approximate mean summed score",[3]; [13],minimal
same,"Ankle inflammation, photomicrograph of approximate mean summed score",[3]; [13],mild
same,"Ankle pannus, photomicrograph of approximate mean summed score",[3]; [13],minimal
same,"Ankle histopathology, reduction of summed scores",[3]; [11],75%
same,"Knee bone resorption, photomicrograph of highest summed score in group",[4]; [14],bone resorption
same,"Knee cartilage damage, photomicrograph of highest summed score in group",[4]; [14],moderate
same,"Knee inflammation, photomicrograph of highest summed score in group",[4]; [14],severe
same,"Knee pannus, photomicrograph of highest summed score in group",[4]; [14],mild
same,"Knee inflammation, photomicrograph of highest summed score in group","[4]; 5 mg/kg CH-4051 alone (Group 7), FIG. 22",mild
same,"Knee histopathology, reduction of summed scores","[4]; 5 mg/kg CH-4051 daily PO (Group 7), vs vehicle treated disease controls",92%
same,Effect on developing arthritis parameters,[5]; 2.5 mg/kg CH-4051 (daily doses),"only minimal, non-significant effects"
same,Effect on arthritis parameters,[5]; 5 mg/kg CH-4051 per day,good inhibition of all arthritis parameters
